One substance from patent US9314485B2, “Use of PI3K M-TOR and AKT inhibitors to induce FOXP3 expression and generate regulatory T cells” (Medical Research Council, priority 2006, dated 2016) can be followed below.

One test relates to Smad2. Description: Smad2 phosphorylation western blot. The format is cell-based, mouse. To be noted: serum free medium, TGFβ 1 ng/ml 90 minutes, inhibitors 90 minutes or 8 hours. From the text:
TGFβ is known as a powerful inducer of Foxp3 expression in conventional CD4 T cells in vitro and we therefore asked whether TGFβ mediates the induction of Foxp3 by TCR signal deprivation of newly activated T cells and PI3-K/mTOR inhibitors. Since cell culture medium supplemented with FCS contains TGFβ, we carried out the experiments described in this section in serum free lymphocyte culture medium (AIM-V, Invitrogen). […] The binding of TGFβ binding to ALK5 and TGFβ receptor II (TGFβRII) results in the phosphorylation of receptor-associated Smad2 and -3, which subsequently associate with co-Smads, translocate to the nucleus and act as transcriptional regulators. The phosphorylation of Smad proteins therefore provides a sensitive indicator of TGFβ signaling. Naive LN T cells were activated for 18 hours in serum free medium and then exposed to TGFβ (1 ng/ml) […], TCR signal deprivation, or TCR signal deprivation plus rapamycin and Ly294002. […] The blot was subsequently probed with anti Smad2/3 as a loading control.

For the next test, the system named is S6 ribosomal protein. The test can be described thus: S6 ribosomal protein phosphorylation (pS6) by intracellular staining/immunoblot. The format is cell-based, mouse. To be noted: 18 h activated cells; rapamycin 25 nM, Ly294002 10 g/ml as printed; within one hour. On the procedure: Mouse strains, cell sorting and culture Animal work was carried out according the Animals (Scientific Procedures) Act, UK. Lymph node (LN) cells were stained, analysed and sorted by flow cytometry as described (Cobb et al 2005 J. Exp. Med. 201: 1367-1373). Intracellular staining for Foxp3 protein was done as advised by the manufacturers (eBiosciences.com). The phosphorylation syatus of S6 ribosomal protein was determined using anti pS6 Ser235/236 (Cellsignaling cat.no. 2211, http://www.cellsignal.com) using the eBioscience Foxp3 staining kit and anti rabbit IgG-FITC or IgG-Cy5 (Jackson Immunoresearch). […] CD4 T cell CFSE profiles were recorded between 48 and 72 hours later.
To monitor the activity of the PI3K/mTOR axis in response to TCR signaling, TCR signal withdrawal and treatment with rapamycin and Ly294002, we analysed the level of phosphorylated S6 ribosomal protein (pS6), the target of p70 S6 kinase, which is directly regulated by mTOR. […]
Mice, Cell Sorting and Culture. […] Lymph node (LN) cells or thymocytes from wild type were stained, analysed and sorted by flow cytometry as described (Thompson et al., 2007 Immunity VoI 26 pp 335-344) from wild type (C57BL/6, BALB/c or C57BL/6×129) mice or from Rag1 deficient H2^b AND TCR transgenic mice. […] CD4 T cell CFSE profiles were recorded between 48 and 72 hours later.

TGFβ: the “phosphorylation of Smad2 (pSmad2 S465/467)” value in the test on Smad2 is given as “readily detectable”; in the test with Smad2 (listed as TGF), “strong phosphorylation of Smad2”. Moreover, the “S6 phosphorylation (pS6)” value in the test with S6 ribosomal protein was “reduced pS6”.
